Laboratory results published in US7435751B2, “7-Fluoro-1,3-dihydro-indol-2-one oxazolidinones as antibacterial agents” (priority 2005, dated 2008).
pKi: −log10 of the molar value. Values after ≈ are worked out from the molar mass of the structure shown.

Experiments:
MAO-A = biological target: T1, MAO-A (Homo sapiens, UniProt P21397); assay: Monoamine oxidase A inhibition (conversion of MAO substrate to dihydropyridinium metabolite); assay type: biochemical; settings: substrate at Km 64 μM; MAO-A 0.01 mg/mL
T1 sequence (P21397 1-527): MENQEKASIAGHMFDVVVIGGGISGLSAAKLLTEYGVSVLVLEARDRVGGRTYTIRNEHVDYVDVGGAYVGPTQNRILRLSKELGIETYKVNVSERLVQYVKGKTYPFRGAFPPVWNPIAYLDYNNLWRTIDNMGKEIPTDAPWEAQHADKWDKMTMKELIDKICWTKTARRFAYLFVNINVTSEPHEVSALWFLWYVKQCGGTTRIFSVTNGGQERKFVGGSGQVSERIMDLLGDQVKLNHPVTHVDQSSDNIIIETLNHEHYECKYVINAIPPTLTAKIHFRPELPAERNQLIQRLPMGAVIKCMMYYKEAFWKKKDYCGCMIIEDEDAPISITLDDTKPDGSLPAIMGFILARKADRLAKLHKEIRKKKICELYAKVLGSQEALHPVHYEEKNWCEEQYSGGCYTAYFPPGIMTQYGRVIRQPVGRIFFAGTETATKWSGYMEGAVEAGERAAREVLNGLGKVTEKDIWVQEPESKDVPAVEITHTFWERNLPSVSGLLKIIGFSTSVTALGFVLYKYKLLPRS
Protocol: (§1) Following procedure may assess monoamine oxidase inhibition activity of the compounds of the present invention:
(§2) MAO-A and B inhibition were analyzed by measuring the inhibition of conversion of an MAO substrate, 1-methyl-4-(1-methyl-2-pyrryl)-1,2,3,6-tetrahydropyridine, to its dihydropyridinium metabolite (λ=421 nm). The substrate concentration was equal to the Km (64 μM for MAO-A and 43 μM for MAO-B). The MAO-A concentration was 0.01 mg/mL, and the MAO-B concentration was 0.008 mg/mL. Each inhibitor was tested at seven concentrations. Percent inhibition at each concentration was established relative to the uninhibited control rate, and the IC50 and Ki values were calculated.

MAO-B = biological target: T2, MAO-B (Homo sapiens, UniProt P27338); assay: Monoamine oxidase B inhibition (conversion of MAO substrate to dihydropyridinium metabolite); assay type: biochemical; settings: substrate at Km 43 μM; MAO-B 0.008 mg/mL
T2 sequence (P27338 1-520): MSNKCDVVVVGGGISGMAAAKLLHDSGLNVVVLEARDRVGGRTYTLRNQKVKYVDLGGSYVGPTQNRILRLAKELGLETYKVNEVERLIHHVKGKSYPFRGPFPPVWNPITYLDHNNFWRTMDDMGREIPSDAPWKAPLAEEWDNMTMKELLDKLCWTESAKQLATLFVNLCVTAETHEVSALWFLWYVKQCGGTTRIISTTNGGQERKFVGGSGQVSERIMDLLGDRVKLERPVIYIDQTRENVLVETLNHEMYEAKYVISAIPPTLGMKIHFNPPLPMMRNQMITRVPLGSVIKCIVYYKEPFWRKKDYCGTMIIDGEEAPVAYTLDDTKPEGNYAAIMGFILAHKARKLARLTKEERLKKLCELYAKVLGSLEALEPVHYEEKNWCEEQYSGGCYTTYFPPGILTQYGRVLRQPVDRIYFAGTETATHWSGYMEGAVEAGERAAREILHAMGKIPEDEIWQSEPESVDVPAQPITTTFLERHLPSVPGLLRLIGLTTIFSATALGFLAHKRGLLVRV
Protocol: as §1, §2

E. faecalis (VREF) = assay: In vitro antibacterial activity, MIC90 against E. faecalis (VREF); assay type: cell-based; settings: Enterococcus faecalis
From the text: (§3) The in vitro antibacterial activity of the compounds of the present invention may be assessed by following procedures recommended in (1) National Committee for Clinical Laboratory Standards (January 2003), Methods for dilution antimicrobial tests for bacteria that grow aerobically, Approved Standard (6th ed), M7-A6, NCCLS, Wayne, Pa.; (2) National Committee for Clinical Laboratory Standards (March 2001), Methods for antimicrobial susceptibility testing of anaerobic bacteria, Approved Standard (5th ed), M11-A4, NCCLS, Wayne, Pa.; (3) National Committee for Clinical Laboratory Standards (Jan. 2003), MIC testing supplemental tables, M100-S13 (for use with M7-A6), NCCLS, Wayne, Pa.; and (4) Murray P R, Baron E J, Jorgensen J H, et al. Manual of Clinical Microbiology (8th ed) Washington, D.C.: American Society for Microbiology Press, 2003. The antibacterial activity can be presented in the form of MIC value. The MIC value is the lowest concentration of drug which prevented macroscopically visible growth under the conditions of the test.

S. pneumoniae (LRSA) = assay: In vitro antibacterial activity, MIC90 against S. pneumoniae (LRSA); assay type: cell-based; settings: Streptococcus pneumoniae
From the text: as §3

S. aureus (LORSA) = assay: In vitro antibacterial activity, MIC90 against S. aureus (LORSA); assay type: cell-based; settings: Staphylococcus aureus
From the text: as §3

E. faecium (VREF) = assay: In vitro antibacterial activity, MIC90 against E. faecium (VREF); assay type: cell-based; settings: Enterococcus faecium
From the text: as §3

S. pneumoniae SV1 SP-3 = assay: In vitro antibacterial activity against S. pneumoniae SV1 SP-3; assay type: cell-based; settings: Streptococcus pneumoniae, SV1SP3; strain SV1 SP-3
From the text: as §3

S. aureus UC-76 SA-1 = assay: In vitro antibacterial activity against S. aureus UC-76 SA-1; assay type: cell-based; settings: Staphylococcus aureus, UC76; strain UC-76 SA-1
From the text: as §3

E. faecalis MGH-2 EF 1-1 = assay: In vitro antibacterial activity against E. faecalis MGH-2 EF 1-1; assay type: cell-based; settings: Enterococcus faecalis, MGH2EF11; strain MGH-2 EF 1-1
From the text: as §3

Row | SMILES | pKi (MAO-A) | pKi (MAO-B) | MIC90 (E. faecalis (VREF)) [µg/mL] | MIC90 (S. pneumoniae (LRSA)) [µg/mL] | MIC90 (S. aureus (LORSA)) [µg/mL] | MIC90 (E. faecium (VREF)) [µg/mL] | MIC90 (S. pneumoniae SV1 SP-3) [µg/mL] | MIC90 (S. aureus UC-76 SA-1) [µg/mL] | MIC90 (E. faecalis MGH-2 EF 1-1) [µg/mL]
1 | COC(=O)NC[C@H]1CN(c2cc(F)c3c(c2)CC(=O)N3C)C(=O)O1 [Example 1, (5S)-[3-(7-fluoro-1-methyl-2-oxo-2,3-dihydro-1H-indol-5-yl)-2-oxo-oxazolidin-5-ylmethyl]-carbamic acid methyl ester] | 3.14 | 4.28 | 4 (≈ 11.9 µM) | 4 (≈ 11.9 µM) | 4 (≈ 11.9 µM) | 4 (≈ 11.9 µM) |  |  | 
2 | COC(=O)NC[C@H]1CN(c2cc(F)c3c(c2)CC(=O)N3C(C)C)C(=O)O1 [Example 2, (5S)-[3-(7-fluoro-1-isopropyl-2-oxo-2,3-dihydro-1H-indol-5-yl)-2-oxo-oxazolidin-5-ylmethyl]-carbamic acid methyl ester] | < 3.30 | 5.50 | 2 (≈ 5.47 µM) | 2 (≈ 5.47 µM) | 4 (≈ 10.9 µM) | 2 (≈ 5.47 µM) |  |  | 
3 | CCN1C(=O)Cc2cc(N3C[C@H](CNC(=O)OC)OC3=O)cc(F)c21 [Example 3, (S)-[3-(1-ethyl-7-fluoro-2-oxo-2,3-dihydro-1H-indol-5-yl)-2-oxo-oxazolidin-5-ylmethyl]-carbamic acid methyl ester] |  |  |  |  |  |  | 4 (≈ 11.4 µM) | 4 (≈ 11.4 µM) | 2 (≈ 5.69 µM)
4 | COC(=O)NC[C@H]1CN(c2cc(F)c3c(c2)CC(=O)N3CCF)C(=O)O1 [Example 4, (S)-{3-[7-fluoro-1-(2-fluoro-ethyl)-2-oxo-2,3-dihydro-1H-indol-5-yl]-2-oxo-oxazolidin-5-ylmethyl}-carbamic acid methyl ester] |  |  |  |  |  |  | 4 (≈ 10.8 µM) | 4 (≈ 10.8 µM) | 2 (≈ 5.42 µM)
5 | CCCN1C(=O)Cc2cc(N3C[C@H](CNC(=O)OC)OC3=O)cc(F)c21 [Example 5, (S)-[3-(7-fluoro-2-oxo-1-propyl-2,3-dihydro-1H-indol-5-yl)-2-oxo-oxazolidin-5-ylmethyl]-carbamic acid methyl ester] |  |  |  |  |  |  | 4 (≈ 10.9 µM) | 8 (≈ 21.9 µM) | 8 (≈ 21.9 µM)
6 | COC(=O)NC[C@H]1CN(c2cc(F)c3c(c2)CC(=O)N3C2CC2)C(=O)O1 [Example 6, (S)-[3-(1-cyclopropyl-7-fluoro-2-oxo-2,3-dihydro-1H-indol-5-yl)-2-oxo-oxazolidin-5-ylmethyl]-carbamic acid methyl ester] |  |  |  |  |  |  | 8 (≈ 22 µM) | 8 (≈ 22 µM) | 8 (≈ 22 µM)
7 | COC(=O)NC[C@H]1CN(c2cc(F)c3c(c2)CC(=O)N3CC2CC2)C(=O)O1 [Example 7, (S)-[3-(1-cyclopropylmethyl-7-fluoro-2-oxo-2,3-dihydro-1H-indol-5-yl)-2-oxo-oxazolidin-5-ylmethyl]-carbamic acid methyl ester] |  |  |  |  |  |  | 4 (≈ 10.6 µM) | 4 (≈ 10.6 µM) | 4 (≈ 10.6 µM)
